This note sets out measurements from PMC2903208 (Organic letters, 2010).

The target in this test is T1, mCD1d (Mus musculus, UniProt P11609).
T1 sequence (P11609 22-305 limits assumed): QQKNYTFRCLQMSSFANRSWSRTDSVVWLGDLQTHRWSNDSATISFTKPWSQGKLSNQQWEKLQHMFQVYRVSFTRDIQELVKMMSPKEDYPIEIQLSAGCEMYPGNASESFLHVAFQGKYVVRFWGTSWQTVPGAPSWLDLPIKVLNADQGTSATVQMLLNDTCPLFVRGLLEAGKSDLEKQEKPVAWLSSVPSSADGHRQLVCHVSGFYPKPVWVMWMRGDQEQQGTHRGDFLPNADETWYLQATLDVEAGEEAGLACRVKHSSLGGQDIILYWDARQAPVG
T1 sequence (P01887 21-119 partner): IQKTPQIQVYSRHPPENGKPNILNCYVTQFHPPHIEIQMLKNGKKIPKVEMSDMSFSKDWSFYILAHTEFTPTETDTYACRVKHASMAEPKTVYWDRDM
Put plainly: SPR of soluble TCR binding to glycolipid-loaded mCD1d.

As for `CCCCCCCCCCCCCCCCCCCCCCCCCC(=O)N[C@@H](CO[C@H]1O[C@H](CO)[C@H](O)[C@H](O)[C@H]1O)[C@H](O)[C@H](O)CCCCCCCCCCCCCC` [compound 1, α-GalCer], the affinity, expressed as Kd, was 12.8 nM.
